According to the kinase profiling compilation of Christmann-Franck et al. (2016):

Tests used:
Assay in all cases: KINOMEscan competition binding
Details in all cases: compound 10.0 µM
ACVR1B (human) = ACVR1B (human) (UniProt P36896)
CDC2L2 (human) = CDC2L2 (human) (UniProt Q9UQ88)
CDK16 (human) = CDK16 (human) (UniProt Q00536)
DCLK1 (human) = DCLK1 (human) (UniProt O15075)
DSTYK (human) = DSTYK (human) (UniProt Q6XUX3)
EPHB2 (human) = EPHB2 (human) (UniProt P29323)
FES (human) = FES (human) (UniProt P07332)
FLT3 (human) = FLT3 (human) (UniProt P36888)
IKBKB (human) = IKBKB (human) (UniProt O14920)
[1] = biological target: JAK3 JH1 catalytic (human) (UniProt P52333)
KDR (human) = KDR (human) (UniProt P35968)
MAP2K2 (human) = MAP2K2 (human) (UniProt P36507)
MAP2K3 (human) = MAP2K3 (human) (UniProt P46734)
MAP3K1 (human) = MAP3K1 (human) (UniProt Q13233)
MAP4K1 (human) = MAP4K1 (human) (UniProt Q92918)
MAPK14 (human) = MAPK14 (human) (UniProt Q16539)
MAPK6 (human) = MAPK6 (human) (UniProt Q16659)
MAPKAPK2 (human) = MAPKAPK2 (human) (UniProt P49137)
NEK3 (human) = NEK3 (human) (UniProt P51956)
OXSR1 (human) = OXSR1 (human) (UniProt O95747)
PHKG2 (human) = PHKG2 (human) (UniProt P15735)
[2] = system: PIK3CA (human), P42336 [H1047Y]
PIM1 (human) = PIM1 (human) (UniProt P11309)
PIM1 (human), sequence (P11309 whole entry, looked up): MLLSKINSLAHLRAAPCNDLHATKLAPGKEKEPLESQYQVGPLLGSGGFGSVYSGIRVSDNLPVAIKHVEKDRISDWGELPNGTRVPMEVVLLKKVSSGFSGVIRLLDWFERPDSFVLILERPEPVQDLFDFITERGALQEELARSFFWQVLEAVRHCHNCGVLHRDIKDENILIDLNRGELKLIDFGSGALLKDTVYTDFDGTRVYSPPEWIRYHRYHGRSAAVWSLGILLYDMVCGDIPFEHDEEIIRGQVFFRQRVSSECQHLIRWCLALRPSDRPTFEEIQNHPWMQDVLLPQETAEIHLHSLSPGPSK

PKN3 (M.tuberculosis) = PKN3 (M.tuberculosis) (UniProt Q6P5Z2)
PKN3 (M.tuberculosis), sequence (Q6P5Z2 whole entry, looked up): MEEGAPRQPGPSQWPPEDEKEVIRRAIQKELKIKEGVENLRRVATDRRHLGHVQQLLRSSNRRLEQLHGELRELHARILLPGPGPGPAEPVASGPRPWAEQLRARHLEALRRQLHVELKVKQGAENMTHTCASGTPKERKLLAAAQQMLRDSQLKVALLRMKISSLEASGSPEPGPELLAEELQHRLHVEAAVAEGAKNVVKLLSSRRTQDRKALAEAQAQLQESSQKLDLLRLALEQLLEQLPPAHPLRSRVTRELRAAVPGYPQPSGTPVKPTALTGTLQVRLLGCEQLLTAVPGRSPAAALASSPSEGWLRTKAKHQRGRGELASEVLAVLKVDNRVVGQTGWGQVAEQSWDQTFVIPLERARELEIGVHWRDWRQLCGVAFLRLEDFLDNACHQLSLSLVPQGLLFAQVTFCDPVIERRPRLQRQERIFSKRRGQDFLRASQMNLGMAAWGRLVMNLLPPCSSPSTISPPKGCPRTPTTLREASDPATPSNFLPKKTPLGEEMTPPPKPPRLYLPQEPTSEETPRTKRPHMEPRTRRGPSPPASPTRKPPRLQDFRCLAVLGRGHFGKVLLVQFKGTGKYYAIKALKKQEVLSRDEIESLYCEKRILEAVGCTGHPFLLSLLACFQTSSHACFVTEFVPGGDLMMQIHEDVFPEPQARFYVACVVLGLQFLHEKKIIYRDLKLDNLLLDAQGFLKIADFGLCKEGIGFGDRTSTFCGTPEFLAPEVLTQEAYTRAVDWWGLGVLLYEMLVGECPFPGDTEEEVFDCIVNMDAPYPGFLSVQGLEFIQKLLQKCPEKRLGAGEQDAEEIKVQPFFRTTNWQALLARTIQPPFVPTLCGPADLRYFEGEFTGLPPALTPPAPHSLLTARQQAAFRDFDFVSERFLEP

PRKD1 (human) = PRKD1 (human) (UniProt Q15139)
PRKD3 (human) = PRKD3 (human) (UniProt O94806)
PRPF4B (human) = PRPF4B (human) (UniProt Q13523)
PRPF4B (human), sequence (Q13523 whole entry, looked up): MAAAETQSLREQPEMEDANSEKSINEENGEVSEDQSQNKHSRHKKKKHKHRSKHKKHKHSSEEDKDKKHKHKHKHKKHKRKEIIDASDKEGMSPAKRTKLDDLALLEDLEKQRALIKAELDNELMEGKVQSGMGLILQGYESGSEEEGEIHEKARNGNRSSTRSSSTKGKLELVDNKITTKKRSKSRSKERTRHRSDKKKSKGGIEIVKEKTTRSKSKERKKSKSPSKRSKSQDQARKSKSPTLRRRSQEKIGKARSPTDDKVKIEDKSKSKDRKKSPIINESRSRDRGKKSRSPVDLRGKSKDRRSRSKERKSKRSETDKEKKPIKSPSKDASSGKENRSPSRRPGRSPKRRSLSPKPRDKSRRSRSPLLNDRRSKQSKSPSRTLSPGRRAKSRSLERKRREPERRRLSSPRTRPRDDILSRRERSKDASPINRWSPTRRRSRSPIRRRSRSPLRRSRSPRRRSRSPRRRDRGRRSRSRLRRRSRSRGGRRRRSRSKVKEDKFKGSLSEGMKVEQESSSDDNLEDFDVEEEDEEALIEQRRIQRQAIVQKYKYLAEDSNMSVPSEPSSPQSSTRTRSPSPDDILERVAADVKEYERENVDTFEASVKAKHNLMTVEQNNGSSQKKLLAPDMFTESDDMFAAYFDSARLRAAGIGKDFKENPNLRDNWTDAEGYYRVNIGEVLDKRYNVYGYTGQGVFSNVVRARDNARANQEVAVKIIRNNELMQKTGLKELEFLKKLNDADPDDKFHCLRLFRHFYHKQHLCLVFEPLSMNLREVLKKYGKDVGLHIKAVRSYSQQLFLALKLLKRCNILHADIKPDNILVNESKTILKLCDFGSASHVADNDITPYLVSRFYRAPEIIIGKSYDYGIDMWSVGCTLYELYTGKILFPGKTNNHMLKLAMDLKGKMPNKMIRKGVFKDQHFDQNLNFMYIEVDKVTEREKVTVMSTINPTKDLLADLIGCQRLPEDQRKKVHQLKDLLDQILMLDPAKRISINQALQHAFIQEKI

RIOK3 (human) = RIOK3 (human) (UniProt O14730)
ROCK2 (human) = ROCK2 (human) (UniProt O75116)
STK10 (human) = STK10 (human) (UniProt O94804)
STK11 (human) = STK11 (human) (UniProt Q15831)
STK35 (human) = STK35 (human) (UniProt Q8TDR2)
STK35 (human), sequence (Q8TDR2 whole entry, looked up): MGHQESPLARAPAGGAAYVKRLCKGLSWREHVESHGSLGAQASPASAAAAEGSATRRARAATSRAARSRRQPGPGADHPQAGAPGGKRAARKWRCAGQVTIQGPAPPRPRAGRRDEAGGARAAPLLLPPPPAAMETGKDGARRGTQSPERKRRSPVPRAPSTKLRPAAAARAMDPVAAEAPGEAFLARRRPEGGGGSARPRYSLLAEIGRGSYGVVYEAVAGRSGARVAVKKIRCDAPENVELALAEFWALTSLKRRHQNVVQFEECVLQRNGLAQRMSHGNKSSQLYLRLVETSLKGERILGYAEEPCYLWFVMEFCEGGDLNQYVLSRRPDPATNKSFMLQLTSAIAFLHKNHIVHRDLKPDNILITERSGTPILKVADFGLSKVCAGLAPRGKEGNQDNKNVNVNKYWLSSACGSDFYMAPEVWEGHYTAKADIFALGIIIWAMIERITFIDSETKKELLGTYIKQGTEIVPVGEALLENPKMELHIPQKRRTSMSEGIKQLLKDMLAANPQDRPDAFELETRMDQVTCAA

STK38L (human) = STK38L (human) (UniProt Q9Y2H1)
TBK1 (human) = TBK1 (human) (UniProt Q9UHD2)
TNIK (human) = TNIK (human) (UniProt Q9UKE5)
TNK1 (human) = TNK1 (human) (UniProt Q13470)
TYRO3 (human) = TYRO3 (human) (UniProt Q06418)
ULK3 (human) = ULK3 (human) (UniProt Q6PHR2)
YES1 (human) = YES1 (human) (UniProt P07947)
ZAP70 (human) = ZAP70 (human) (UniProt P43403)

CDC2L2 (human), sequence (Q9UQ88 whole entry, looked up): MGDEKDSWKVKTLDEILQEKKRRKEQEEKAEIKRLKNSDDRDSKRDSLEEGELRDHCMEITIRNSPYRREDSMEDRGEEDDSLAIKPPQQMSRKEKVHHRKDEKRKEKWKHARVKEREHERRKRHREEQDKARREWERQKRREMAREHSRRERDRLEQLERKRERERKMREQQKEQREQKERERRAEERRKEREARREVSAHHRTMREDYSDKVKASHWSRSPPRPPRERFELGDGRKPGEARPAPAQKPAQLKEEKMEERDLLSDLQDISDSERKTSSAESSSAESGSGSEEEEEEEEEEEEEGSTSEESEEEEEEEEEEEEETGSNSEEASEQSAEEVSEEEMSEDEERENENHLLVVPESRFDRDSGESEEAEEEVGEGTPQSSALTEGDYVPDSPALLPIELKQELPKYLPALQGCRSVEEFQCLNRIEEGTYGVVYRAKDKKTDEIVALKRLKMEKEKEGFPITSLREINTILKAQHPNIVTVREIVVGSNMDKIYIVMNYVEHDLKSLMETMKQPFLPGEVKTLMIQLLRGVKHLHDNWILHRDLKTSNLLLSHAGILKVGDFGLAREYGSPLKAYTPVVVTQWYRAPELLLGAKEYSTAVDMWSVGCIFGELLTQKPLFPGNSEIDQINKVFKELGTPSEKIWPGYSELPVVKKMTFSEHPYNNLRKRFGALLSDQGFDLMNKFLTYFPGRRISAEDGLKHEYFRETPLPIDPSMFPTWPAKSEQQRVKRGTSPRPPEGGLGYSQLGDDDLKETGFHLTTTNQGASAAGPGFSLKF
ACVR1B (human), sequence (P36896 whole entry, looked up): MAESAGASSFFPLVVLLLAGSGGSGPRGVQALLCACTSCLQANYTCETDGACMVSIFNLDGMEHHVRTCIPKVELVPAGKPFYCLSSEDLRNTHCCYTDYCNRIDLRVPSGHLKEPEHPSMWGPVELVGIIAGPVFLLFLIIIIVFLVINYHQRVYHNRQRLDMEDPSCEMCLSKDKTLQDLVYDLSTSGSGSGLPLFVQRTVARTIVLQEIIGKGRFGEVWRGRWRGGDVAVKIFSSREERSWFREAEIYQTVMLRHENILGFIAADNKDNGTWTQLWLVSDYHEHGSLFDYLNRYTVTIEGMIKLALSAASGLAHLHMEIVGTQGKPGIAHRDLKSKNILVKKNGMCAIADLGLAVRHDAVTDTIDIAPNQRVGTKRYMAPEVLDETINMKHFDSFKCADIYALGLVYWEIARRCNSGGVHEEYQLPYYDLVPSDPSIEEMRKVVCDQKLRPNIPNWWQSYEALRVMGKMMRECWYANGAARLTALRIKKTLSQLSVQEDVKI
DSTYK (human), sequence (Q6XUX3 whole entry, looked up): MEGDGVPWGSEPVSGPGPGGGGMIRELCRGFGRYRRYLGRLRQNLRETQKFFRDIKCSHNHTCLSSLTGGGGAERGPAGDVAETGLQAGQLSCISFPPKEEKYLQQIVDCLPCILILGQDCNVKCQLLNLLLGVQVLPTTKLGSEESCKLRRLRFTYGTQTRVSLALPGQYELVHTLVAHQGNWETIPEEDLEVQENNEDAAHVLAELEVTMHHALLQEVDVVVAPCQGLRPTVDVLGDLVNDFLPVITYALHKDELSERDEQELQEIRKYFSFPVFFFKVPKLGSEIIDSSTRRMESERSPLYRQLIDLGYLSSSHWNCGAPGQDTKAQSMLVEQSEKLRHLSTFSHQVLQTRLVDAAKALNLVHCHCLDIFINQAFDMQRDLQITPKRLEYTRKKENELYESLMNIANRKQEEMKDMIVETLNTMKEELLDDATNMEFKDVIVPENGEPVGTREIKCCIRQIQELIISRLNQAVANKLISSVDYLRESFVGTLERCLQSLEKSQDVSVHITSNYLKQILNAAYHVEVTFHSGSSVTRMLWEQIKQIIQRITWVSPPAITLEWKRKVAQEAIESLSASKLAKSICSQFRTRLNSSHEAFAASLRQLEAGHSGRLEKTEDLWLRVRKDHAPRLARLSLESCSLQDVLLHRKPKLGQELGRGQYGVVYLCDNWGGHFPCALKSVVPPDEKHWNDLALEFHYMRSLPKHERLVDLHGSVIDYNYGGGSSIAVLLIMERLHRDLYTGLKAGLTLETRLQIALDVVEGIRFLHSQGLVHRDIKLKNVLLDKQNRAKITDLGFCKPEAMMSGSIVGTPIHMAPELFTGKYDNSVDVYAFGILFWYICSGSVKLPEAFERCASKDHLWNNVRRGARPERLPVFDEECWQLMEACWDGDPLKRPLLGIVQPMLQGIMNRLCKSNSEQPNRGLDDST

Row | Compound | kinase still bound, per cent of control (ACVR1B (human)) [%] | kinase still bound, per cent of control (CDC2L2 (human)) [%] | kinase still bound, per cent of control (CDK16 (human)) [%] | kinase still bound, per cent of control (DCLK1 (human)) [%] | kinase still bound, per cent of control (DSTYK (human)) [%] | kinase still bound, per cent of control (EPHB2 (human)) [%] | kinase still bound, per cent of control (FES (human)) [%] | kinase still bound, per cent of control (FLT3 (human)) [%] | kinase still bound, per cent of control (IKBKB (human)) [%] | kinase still bound, per cent of control [1] [%] | kinase still bound, per cent of control (KDR (human)) [%] | kinase still bound, per cent of control (MAP2K2 (human)) [%] | kinase still bound, per cent of control (MAP2K3 (human)) [%] | kinase still bound, per cent of control (MAP3K1 (human)) [%] | kinase still bound, per cent of control (MAP4K1 (human)) [%] | kinase still bound, per cent of control (MAPK14 (human)) [%] | kinase still bound, per cent of control (MAPK6 (human)) [%] | kinase still bound, per cent of control (MAPKAPK2 (human)) [%] | kinase still bound, per cent of control (NEK3 (human)) [%] | kinase still bound, per cent of control (OXSR1 (human)) [%] | further results
1 | Cc1ccc(NC(=O)c2cccc(C(C)(C)C#N)c2)cc1Nc1ccc2ncn(C)c(=O)c2c1 | 97 | 5.4 | 100 | 97 | 78 | 0 | 43 | 61 | 94 | 87 | 2.3 | 100 | 80 | 76 | 63 | 0 | 100 | 100 | 57 | 96 | kinase still bound, per cent of control (PHKG2 (human)): 100%; kinase still bound, per cent of control [2]: 100%; kinase still bound, per cent of control (PIM1 (human)): 100%; kinase still bound, per cent of control (PKN3 (M.tuberculosis)): 100%; kinase still bound, per cent of control (PRKD1 (human)): 67%; kinase still bound, per cent of control (PRKD3 (human)): 88%; kinase still bound, per cent of control (PRPF4B (human)): 100%; kinase still bound, per cent of control (RIOK3 (human)): 100%; kinase still bound, per cent of control (ROCK2 (human)): 80%; kinase still bound, per cent of control (STK10 (human)): 0.1%; kinase still bound, per cent of control (STK11 (human)): 100%; kinase still bound, per cent of control (STK35 (human)): 75%; kinase still bound, per cent of control (STK38L (human)): 100%; kinase still bound, per cent of control (TBK1 (human)): 100%; kinase still bound, per cent of control (TNIK (human)): 3.4%; kinase still bound, per cent of control (TNK1 (human)): 100%; kinase still bound, per cent of control (TYRO3 (human)): 100%; kinase still bound, per cent of control (ULK3 (human)): 97%; kinase still bound, per cent of control (YES1 (human)): 4.6%; kinase still bound, per cent of control (ZAP70 (human)): 100%
2 | C=CC(=O)Nc1cc(NC(=O)c2ccc(C)c(NC(=O)c3ccno3)c2)cc(C(F)(F)F)c1 | 100 | 94 | 95 | 100 | 100 | 77 | 100 | 100 | 90 | 100 | 87 | 93 | 100 | 94 | 75 | 0.5 | 100 | 100 | 88 | 100 | kinase still bound, per cent of control (PHKG2 (human)): 95%; kinase still bound, per cent of control [2]: 95%; kinase still bound, per cent of control (PIM1 (human)): 100%; kinase still bound, per cent of control (PKN3 (M.tuberculosis)): 75%; kinase still bound, per cent of control (PRKD1 (human)): 100%; kinase still bound, per cent of control (PRKD3 (human)): 100%; kinase still bound, per cent of control (PRPF4B (human)): 100%; kinase still bound, per cent of control (RIOK3 (human)): 76%; kinase still bound, per cent of control (ROCK2 (human)): 85%; kinase still bound, per cent of control (STK10 (human)): 100%; kinase still bound, per cent of control (STK11 (human)): 100%; kinase still bound, per cent of control (STK35 (human)): 100%; kinase still bound, per cent of control (STK38L (human)): 88%; kinase still bound, per cent of control (TBK1 (human)): 100%; kinase still bound, per cent of control (TNIK (human)): 100%; kinase still bound, per cent of control (TNK1 (human)): 85%; kinase still bound, per cent of control (TYRO3 (human)): 93%; kinase still bound, per cent of control (ULK3 (human)): 97%; kinase still bound, per cent of control (YES1 (human)): 46%; kinase still bound, per cent of control (ZAP70 (human)): 54%
3 | Nc1ccc(-c2ccc3ncc4ccc(=O)n(-c5cccc(C(F)(F)F)c5)c4c3c2)cn1 | 96 | 98 | 98 | 97 | 88 | 98 | 100 | 12 | 89 | 100 | 100 | 100 | 66 | 100 | 100 | 100 | 62 | 100 | 95 | 100 | kinase still bound, per cent of control (PHKG2 (human)): 100%; kinase still bound, per cent of control (PIM1 (human)): 92%; kinase still bound, per cent of control (PKN3 (M.tuberculosis)): 63%; kinase still bound, per cent of control (PRKD1 (human)): 87%; kinase still bound, per cent of control (PRKD3 (human)): 100%; kinase still bound, per cent of control (PRPF4B (human)): 100%; kinase still bound, per cent of control (RIOK3 (human)): 100%; kinase still bound, per cent of control (ROCK2 (human)): 81%; kinase still bound, per cent of control (STK10 (human)): 100%; kinase still bound, per cent of control (STK11 (human)): 98%; kinase still bound, per cent of control (STK35 (human)): 92%; kinase still bound, per cent of control (STK38L (human)): 100%; kinase still bound, per cent of control (TBK1 (human)): 100%; kinase still bound, per cent of control (TNIK (human)): 68%; kinase still bound, per cent of control (TNK1 (human)): 100%; kinase still bound, per cent of control (TYRO3 (human)): 100%; kinase still bound, per cent of control (ULK3 (human)): 100%; kinase still bound, per cent of control (YES1 (human)): 100%; kinase still bound, per cent of control (ZAP70 (human)): 100%
